Earlier results, collected in patent publication US20200372978A1 (priority 2019, published 2020).

Biological target: T1, PPARγ (Homo sapiens, UniProt P37231)
T1 sequence (P37231 1-505): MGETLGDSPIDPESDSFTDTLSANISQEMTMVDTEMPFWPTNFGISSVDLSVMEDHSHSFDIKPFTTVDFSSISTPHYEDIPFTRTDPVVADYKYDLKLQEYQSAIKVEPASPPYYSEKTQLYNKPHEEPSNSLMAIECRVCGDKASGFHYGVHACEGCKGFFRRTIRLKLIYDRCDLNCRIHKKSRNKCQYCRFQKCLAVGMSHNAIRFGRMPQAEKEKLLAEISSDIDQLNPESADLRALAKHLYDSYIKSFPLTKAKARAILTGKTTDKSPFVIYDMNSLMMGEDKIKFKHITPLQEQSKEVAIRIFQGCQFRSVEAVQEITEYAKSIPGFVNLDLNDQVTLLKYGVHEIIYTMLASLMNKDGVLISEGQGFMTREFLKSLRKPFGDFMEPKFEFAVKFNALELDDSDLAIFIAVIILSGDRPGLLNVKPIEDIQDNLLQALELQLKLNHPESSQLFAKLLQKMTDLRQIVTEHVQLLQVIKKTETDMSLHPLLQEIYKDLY
Conditions: of the maximum effect of ROSI

## CC(C)COC(=O)c1ccccc1C(=O)OCC(C)C [DiBP]
  maximum effect: 25%
